Source: patent publication US10080365B2, “Use of strobilurin type compounds for combating phytopathogenic fungi resistant to Qo inhibitors” (BASF SE, priority 2011, dated 2018)
Read-outs that look alike come from different tables or passages of the source.

Legend:
[1] = test system: Septoria tritici (Qo-inhibitor-resistant, G143A mutant); assay: Microtiter test, Septoria tritici Qo-inhibitor-resistant G143A mutant (Use Example 1); format: cell-based; details: for IC50: read-out: Resistant Septoria tritici isolate (G143A mutation) (R-IC50)
Method: (§1) The active substances were formulated separately as a stock solution in dimethyl sulfoxide (DMSO) at a concentration of 10 000 ppm.
(§2) Activity against the Septoria blotch pathogen caused by Septoria tritici in the microtiter test
(§3) Fungal strains used: • a) Septoria tritici (Qo-inhibitor sensitive, wild-type) • b) Septoria tritici (Qo-inhibitor-resistant, G143A mutant)
(§4) 100 ml 2% Malt extract in water at pH6.8 were inoculated with microspores from 2 week old cultures grown on 2% malt extract+2% agar in Petri dishes and incubated for 3 days on a rotary shaker at 24° C. und 150 rpm. The culture was harvested, glycerol was added (15% (v/v) and kept frozen at −20° C. in aliquots of 1 ml.
(§5) 1 ml stock suspension was thawed and suspended into 800 ml of 2% malt extract in water at pH 6.8. Compounds were diluted from stock solution in (dimethylsulfoxide) DMSO in 10 steps. The compound solutions were diluted 1/5 with sterile deionized water before use. 5 μl of the compound solutions were transferred into empty microplates. The plates were then filled with 195 μl of the microspore suspension of each strain.
(§6) The antifungal activity was determined by measuring the turbidity of a culture in 96-well microplates in the presence of test compounds. Fungal growth was measured by recording the optical density at 620 nm every 15 h for 150 h. The relative antifungal activity was calculated by comparison of the effect of the test compounds with the effect of a DMSO control and a standard fungicide.
(§7) IC50-values (concentration of test compound resulting in 50% inhibition of fungal growth) were calculated from the resulting dose-response for each compound and strain. The initial concentration of the test compounds and the 10 steps of dilution (1:4 each) allowed IC50-values from 0.001 to 100 μmol/l (μM) to be assessed.

[2] = test system: Septoria tritici isolates containing the G143A in the cytochrome b gene; assay: Glass house Trial 3: control of leaf blotch on wheat caused by two Septoria tritici isolates containing G143A; format: in vivo; details: % diseased leaf area after about 28 days
Method: The spray solutions were prepared in several steps:
The stock solution was prepared as follows: 1.26 ml of a 1:1 mixture of cyclohexanone and dimethylsulfoxide was added to 8.4 mg of active ingredient. Next, 40.74 ml of a mixture of water, acetone (10%), the emulsifier Wettol (0.1%) and the wetting agent Silwet (0.05%) was added. This stock solution was then further diluted with the described solvent-emulsifier-water mixture to the desired concentrations.
Trial 3: Control of Leaf Blotch on Wheat Caused by Caused by Two Septoria tritici Isolates Containing the G143A in the Cytochrome b Gene for their Cytochrome Bc1 Complex
Wheat plants were grown in pots. These plants were sprayed to run-off with an aqueous suspension, containing the desired concentration of active ingredient. The next day, the treated plants were inoculated with an aqueous suspension of Septoria tritici. After inoculation, the trial plants were covered with a lid and immediately transferred to a chamber with a relative humidity of about 83 to 85% and 19.5 to 20° C. After 4 days the lid was removed. Altogether, the trial plants were cultivated for about 28 days in that greenhouse chamber. The extent of fungal attack on the leaves was then visually assessed as % diseased leaf area.

Septoria tritici [3] = assay: Field Trial 2: efficacy against Septoria tritici on winter wheat (Limburgerhof); format: in vivo, Septoria tritici on winter wheat (cv. Riband); details: 200 g a.i./ha; for Disease (%) 19 DAA: applied at GS 33 and 26 days later at GS 39, natural infection, 19 days after last treatment; for Disease (%) 34 DAA: applied at GS 33 and GS 39, 34 days after last treatment; for antifungal activity against Qo inhibitor-resistant Septoria tritici, in words: commercial dose level
Method: (§8) Compound I-6 was used as 50 g/l EC formulation. Pyraclostrobin was used as commercial product HEADLINE.
This trial was conducted under field conditions in Limburgerhof, Rhineland-Palatinate, Germany. Seeds of winter wheat (cv. Riband) were planted and grown under standard conditions with adequate supply of water and nutrients. At growing stage GS 33 (Apr. 8, 2011), a first compound treatment (200 g a.i per ha) was made with a water volume of 400 L/ha, which was repeated 26 days later at growing stage GS 39. No further fungicide treatments were applied. Infection with fungal pathogens (e.g. Septoria tritici) occurred naturally. The evaluation of the disease incidences for Septoria tritici 19 and 34 days after the last treatment (DAA) are shown in Table IV. In the last row, the evaluation of the percentage of Qo inhibitor-resistant Septoria tritici isolates with the G143A mutation after the treatments is given.

Septoria tritici [4] = assay: Field Trial 1: efficacy against Septoria tritici on winter wheat (Böhl-Iggelheim); format: in vivo, Septoria tritici on winter wheat (cv. Riband); details: 200 g a.i./ha; for Disease (%) 20 DAA: applied at GS 32 and 21 days later at GS 39, natural infection, 20 days after last treatment; for Disease (%) 33 DAA: applied at GS 32 and GS 39, 33 days after last treatment; for Disease (%) 46 DAA: applied at GS 32 and GS 39, 46 days after last treatment; for control of Qo inhibitor-resistant Septoria tritici isolates, in words: commercial dose level
Method: as §8
The trial was conducted under field conditions in Böhl-Iggelheim, Rhineland-palatinate, Germany. Seeds of winter wheat (cv. Riband) were planted and grown under standard conditions with adequate supply of water and nutrients. At growing stage GS 32 (Apr. 14, 2011), a first compound treatment (200 g a.i. per ha) was made with a water volume of 400 L/ha, which was repeated 21 days later at growing stage GS 39. No further fungicide treatments were applied. Infection with fungal pathogens (e.g. Septoria tritici) occurred naturally. The evaluation of the disease incidences for Septoria tritici 20, 33 and 46 days after the last treatment (DAA) are shown in table Ill. In the last row, the evaluation of the percentage of Qo inhibitor-resistant Septoria tritici isolates with the G143A mutation after the treatments is given.

[5] = test system: Septoria tritici (Qo-inhibitor sensitive, wild-type); assay: Microtiter test, Septoria tritici Qo-inhibitor sensitive wild-type (Use Example 1); format: cell-based; details: turbidity at 620 nm, read-out: Sensitive Septoria tritici isolate (wild type) (S-IC50)
Method: as §1, §2, §3, §4, §5, §6, §7

[6] = Resistant Septoria tritici isolate 1 (G143A mutation), 12.5 ppm
[7] = Resistant Septoria tritici isolate 1 (G143A mutation), 25 ppm
[8] = Resistant Septoria tritici isolate 1 (G143A mutation), 50 ppm
[9] = Resistant Septoria tritici isolate 1 (G143A mutation), 100 ppm
[10] = Resistant Septoria tritici isolate 1 (G143A mutation), 200 ppm
[11] = Resistant Septoria tritici isolate 2 (G143A mutation), 12.5 ppm
[12] = Resistant Septoria tritici isolate 2 (G143A mutation), 25 ppm
[13] = Resistant Septoria tritici isolate 2 (G143A mutation), 50 ppm
[14] = Resistant Septoria tritici isolate 2 (G143A mutation), 100 ppm
[15] = Resistant Septoria tritici isolate 2 (G143A mutation), 200 ppm

Row | SMILES | IC50 ([1]; Zymoseptoria tritici) | Resistance factor RF = R-IC50/S-IC50 ([1]; {}) | Disease level (%) [2, 6] | Disease level (%) [2, 7] | Disease level (%) [2, 8] | Disease level (%) [2, 9] | Disease level (%) [2, 10] | Disease level (%) [2, 11] | Disease level (%) [2, 12] | Disease level (%) [2, 13] | Disease level (%) [2, 14] | Disease level (%) [2, 15] | Disease (%) 19 DAA (Septoria tritici [3]) | Disease (%) 34 DAA (Septoria tritici [3]) | antifungal activity against Qo inhibitor-resistant Septoria tritici, in words (Septoria tritici [3]) | Disease (%) 20 DAA (Septoria tritici [4]) | Disease (%) 33 DAA (Septoria tritici [4]) | Disease (%) 46 DAA (Septoria tritici [4]) | control of Qo inhibitor-resistant Septoria tritici isolates, in words (Septoria tritici [4]) | IC50 ([5]; Zymoseptoria tritici) | further results
1 | CNC(=O)C(=N/OC)/C(C)=C\COc1ccn(-c2ccc(Cl)cc2)n1 [Compound I-6, (Z)-5-[1-(4-Chloro-phenyl)-1H-pyrazol-3-yloxy]-2-[(E)-methoxyimino]-3-methyl-pent-3-enic acid methyl amide] | 8300 nM | 24 | 50% | 10% | 3% | 3% | 1% | 20% | 15% | 3% | 3% | 0% | 3% | 12% | capable to reduce the infection | 1% | 6% | 36% | capable to control | 340 nM | 
2 | Cn1nnn(-c2ccccc2COc2ccn(-c3ccc(Cl)cc3)n2)c1=O [Compound I-211] |  |  | 80% | 60% | 10% | 3% | 1% | 30% | 10% | 5% | 1% | 0% |  |  |  |  |  |  |  |  | IC50 ([1]; microtiter test, Qo-inhibitor-resistant G143A mutant, turbidity at 620 nm): 1100 nM; Resistance factor RF = R-IC50/S-IC50 ([1]; ratio of IC50 for G143A resistant isolate to IC50 for wild-type sensitive isolate): 2.6; IC50 [5]: 440 nM
3 | COC(=O)N(OC)c1ccccc1COc1ccn(-c2ccc(Cl)cc2)n1 [Pyraclostrobin, reference compound] | 3400 nM | 2882 | 100% | 100% | 100% | 90% | 30% | 60% | 60% | 40% | 25% | 15% | 5% | 28% | only slightly above the untreated control | 8% | 32% | 93% | insufficient control level | 1.2 nM | 
4 | CON=C(C(=O)OC)c1ccccc1CON=C(C)c1cccc(C(F)(F)F)c1 [Trifloxystrobin, reference compound] | > 100000 nM |  | 100% | 100% | 90% | 90% | 90% | 80% | 70% | 70% | 70% | 60% |  |  |  |  |  |  |  | 520 nM | 
5 | CO/C=C(C(=O)OC)\C(C)=C/COc1ccn(-c2ccc(Cl)cc2)n1 [Compound I-7, (Z)-5-[1-(4-Chloro-phenyl)-1H-pyrazol-3-yloxy]-2-[1-methoxy-meth-(E)-yl-idene]-3-methyl-pent-3-enoic acid methyl ester] |  |  | 100% | 80% | 20% | 3% | 3% | 90% | 15% | 5% | 1% | 0% |  |  |  |  |  |  |  |  | 
